Laboratory results published in PMC4426631, “Insect antimicrobial peptides show potentiating functional interactions against Gram-negative bacteria” (Proceedings of the Royal Society B: Biological Sciences, 2015).
“Also recorded” adds a separate entry of the source. Cf = 5(6)-carboxyfluorescein

Key:
E. coli strain JM83 = assay: E. coli permeabilization assay (β-galactosidase leakage); assay type: cell-based
Description: The membrane permeabilizing activities of AMPs were determined using E. coli strain JM83 on the basis of β-galactosidase activity leaking from the cytoplasm, as described in detail in the electronic supplementary material. Living bacteria incubated with medium only were used as a negative control and bacteria killed by treatment with 5 µM synthetic cecropin B (Sigma-Aldrich) were used as a positive control (100% permeabilization). Before setting the perforation level of the positive control to 100%, the perforation value obtained for the negative control was subtracted from all other measurements. All assays were carried out three times, each time in triplicate. The results were presented as means ± s.d. (n = 3) based on statistical analysis using Student's t-test. […]
i) Peptide synthesis and modification.
The peptide sequences shown in Tabl es S1 an d S4 were selected according to their repo rted structural and functional properties, synthesized and purified to >95%. […]
The membran e p ermeabilizing activities of AMPs were determined using E. coli strain JM83 on the basis of β-gal actosidase activit y leakin g from the c ytoplasm. […] The samples were incubated at 37°C for 90 min and the absorbance was measured at 405 nm , which is proportional to the amount of released β-gal act osidase. […]

E. coli strain D22 = tested on: E. coli strain D22; design: method as in PMID 9219367; conditions: E. coli strain D22, which has a defective cell envelope; ref [46]; cited from earlier work
Excerpt: In the original report, the authors used E. coli strain D22, which has a defective cell envelope.

E. coli JM83 cells = assay: Atomic force microscopy imaging of bacterial cells; assay type: cell-based; conditions: 20 µM abaecin, 1.5 h, 37°C
Description: Bacteria were prepared for imaging as previously described (see electronic supplementary material). The data were analysed with NANOSCOPE […] software v. 1.40 (Veeco, USA). Three fields on each mica disc were imaged. Three-dimensional images and section profiles were prepared using WSXM v. 5.0 software. The roughness values were measured over the entire bacterial cell surface on 3 × 3 µm^2 areas. The average surface root mean square (RMS) roughness was calculated from 25 fields (300 × 300 nm^2). The data were analysed using […] v. 6 (StatSoft, Inc., Tulsa, OK, USA). Statistical significance was determined by ANOVA (Tukey's honestly significant difference test). […]
5 μM h ymenopt aecin. […] Th e cell surface was imaged in Anal ytical Labo rator y, Facult y of Chemistry, UMCS, Lublin, Poland using a NanoScope V AFM (Veeco, USA. All measurements were carri ed out in “Peak Force QNM” mode usin g an NSG 30 silicon tip with a spring constant of 20 N/m (NT-MDT, Russia). The data were an al yzed wi th Nanoscope Anal ysis software v1.40 (Veeco, USA). Three fields on each mica disk were imaged. Three dimensional images and section profiles were prepared using WSxM v5.0 software. The roughness values were measured over the entire bacterial cell surface on 3×3 µm2 areas. The average surface root-mean-square (RMS) roughness was calculated from 25 fields (300×300 nm2). […]

Substance: abaecin: proline-rich peptide abaecin, species version not specified at the place (Cf-FVPYNPPRPGQSKPFPSFPGHGPFNPKIQWPYPLPNPGH-NH2)
- perforation of the bacterial envelope, abaecin alone (E. coli strain JM83; 20 µM abaecin, pH 6.8 phosphate buffer, 45 min, 37°C, 405 nm, relative to 5 µM cecropin B = 100%, n = 3): approximately 4.8%
- increase in membrane permeability, in words (E. coli strain JM83; peptide alone): only marginally increased
- antibacterial activity (E. coli strain D22): antibacterial activity was demonstrated
- cell morphology and surface (AFM), abaecin alone (E. coli JM83 cells): smoother than the control cells; also recorded: granules and grooves were visible although less pronounced, and there were fewer flagella
- cell morphology and surface (AFM), abaecin alone (E. coli JM83 cells; listed as Abaecin): no significant impact on gross morphology
